According to article PMC3086806, “Mining a Cathepsin Inhibitor Library for New Antiparasitic Drug Leads” (PLoS Neglected Tropical Diseases, 2011):

Experiments:
[1] = Jurkat cell cytotoxicity assay; type: cell-based; details: human, Jurkat cells (clone E6-1), read-out: Cytotoxicity (% inhibition at 10 µM) Jurkat cells
Description: Jurkat cells (clone E6-1) were grown in complete RPMI-1640 medium containing 10% FBS, 50 U/mL penicillin and 50 µg/mL streptomycin (Invitrogen) at 37°C under a humidified atmosphere and 5% CO2. For cytotoxicity testing, cells were diluted to 1×10^5 per ml in complete RPMI-1640 medium. Test compound stocks were prepared in 100% DMSO and screened at 10 µM against cells (1×10^4 cells per well) in sterile Greiner 96-well flat white opaque culture plates (0.5% final DMSO concentration). The 0% inhibition control wells contained 0.5% DMSO while 100% inhibition control wells contained 40 µM staurosporine. After compound addition, plates were incubated for 40 hr at 37°C. At the end of the incubation period, 50 µL of CellTiter-Glo™ reagent (Promega Inc., Madison, WI, USA) was added to each well and plates were placed on an orbital shaker at room temperature for 2 min to induce lysis. After a further 10 min incubation without shaking to stabilize the signal, the ATP-bioluminescence of each well was determined using an Analyst HT plate reader (Molecular Devices, Sunnyvale, CA, USA). Calculations of percentage inhibition and IC50 were performed similar to those in the T. brucei brucei assay.

rhodesain = target: T1, rhodesain (Trypanosoma brucei rhodesiense, UniProt Q95PM0); test: Rhodesain protease inhibition assay (Z-Phe-Arg-AMC); type: biochemical; details: for Fold more potent inhibition of rhodesain than TbCatB: rhodesain vs TbCatB IC50
T1 construct: made in house
T1 sequence (Q95PM0 entry or part of it): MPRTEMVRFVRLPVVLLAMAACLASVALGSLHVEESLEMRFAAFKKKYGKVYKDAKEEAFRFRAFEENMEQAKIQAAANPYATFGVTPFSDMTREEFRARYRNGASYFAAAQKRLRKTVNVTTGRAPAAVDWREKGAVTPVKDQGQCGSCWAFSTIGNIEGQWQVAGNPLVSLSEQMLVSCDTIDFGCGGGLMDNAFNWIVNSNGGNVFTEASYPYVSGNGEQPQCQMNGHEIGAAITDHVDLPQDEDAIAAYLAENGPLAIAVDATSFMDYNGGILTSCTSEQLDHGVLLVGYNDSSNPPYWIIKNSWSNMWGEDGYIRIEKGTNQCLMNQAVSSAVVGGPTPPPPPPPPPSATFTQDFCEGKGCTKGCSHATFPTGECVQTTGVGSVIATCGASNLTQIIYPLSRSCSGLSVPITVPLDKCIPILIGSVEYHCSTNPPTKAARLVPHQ
Description: Recombinant cruzain, rhodesain, TbCatB, falcipain-2 and falcipain-3 were expressed as described previously, [39], [40], [41], [42]. Inhibitor stock solutions were prepared in DMSO and screened at 0.1 µM for cruzain and rhodesain, 1 µM for TbCatB and 50 nM for falcipain-3 (0.5% DMSO in assay). […] Protease inhibition assays for cruzain and rhodesain were carried out in 96 well plate format as described previously. Cruzain (4 nM), rhodesain (4 nM) or TbCatB (258 nM) was incubated with test compound in 100 mM sodium acetate, pH 5.5, containing 5 mM DTT and 0.01% Triton X-100 (buffer A), for 5 min at room temperature (the higher concentration of TbCatB was required due to its lower intrinsic activity against the fluorogenic substrate). Then buffer A containing Z-Phe-Arg-AMC (Bachem) was added to enzyme-compound mixture to give 10 µM substrate in a final assay volume of 200 µL. The rate of free AMC release was measured at excitation and emission wavelengths of 355 and 460 nm, respectively, with a microtiter plate spectrofluorimeter (SpectraMax M5, Molecular Devices) for 3 min. Percentage inhibition of test compound was calculated relative to the DMSO control (0% inhibition control). IC50 values were determined with Prism 4 software (GraphPad, San Diego, CA) using sigmoidal dose-response variable slope model.

[2] = test system: T. brucei brucei clone 427-221a bloodstream forms; test: T. brucei brucei growth inhibition assay; type: cell-based; details: Trypanosoma brucei; 40 hours
Description: The growth inhibition assay for T. brucei brucei was conducted as described previously. Bloodstream forms of the monomorphic T. brucei brucei clone 427-221a were grown in complete HMI-9 medium containing 10% FBS, 10% Serum Plus medium (Sigma Inc. St. Louis Mo. USA), 50 U/mL penicillin and 50 µg/mL streptomycin (Invitrogen) at 37°C under a humidified atmosphere and 5% CO2. […] 5 µL of each dilution was added to 95 µL of diluted parasites (1×10^4 cells per well) in sterile Greiner 96-well flat white opaque culture plates such that the final DMSO concentration was 0.5%. The 0% inhibition control wells contained 0.5% DMSO while 100% inhibition control wells contained 50 µM thimerosal (Sigma). After compound addition, plates were incubated for 40 hours at 37°C. At the end of the incubation period, 50 µL of CellTiter-Glo™ reagent (Promega Inc., Madison, WI, USA) was added to each well and plates were placed on an orbital shaker at room temperature for 2 min to induce lysis. After an additional 10 min incubation without shaking to stabilize the signal, the ATP-bioluminescence of each well was determined using an Analyst HT plate reader (Molecular Devices, Sunnyvale, CA, USA). Raw values were converted to log10 and percentage inhibition calculated relative to the controls. IC50 curve fittings were performed with Prism 4 software as above.

human cathepsin B = target: human cathepsin B; parameters: method as in data provided by Celera Genomics; details: historical data; ref data provided by Celera Genomics; read-out: Ki catB; cited from earlier work

SMILES	cytotoxicity at 40 h, 10 µM [1]	IC50 (rhodesain)	Fold more potent inhibition of rhodesain than TbCatB (rhodesain)	GI50 [2]	Ki (human cathepsin B)
CCCCC(NC(=O)C(CC(C)C)NC(=O)N1CCOCC1)C(=O)c1nc2ccccc2o1 (stereo not shown) [Compound 19a]	< 5%	1 nM	~1000 fold	> 25000 nM	125 nM
CCCCC(NC(=O)C(Cc1ccccc1)NC(=O)N1CCOCC1)C(=O)c1nc2ccccc2o1 (stereo not shown) [Compound 19b]	< 5%	1 nM	~1000 fold	> 25000 nM	42 nM
